# Measured values published in ChEMBL document CHEMBL1157539, “Thousands of chemical starting points for antimalarial lead identification” (Nature, 2010).
# Tested on: Plasmodium falciparum
# Experiment: GSK_TCMDC: Inhibition of Plasmodium falciparum 3D7 in whole erythrocytes, using parasite LDH activity as an index of growth.
# Assay type: functional, organism-based
# Conditions: Plasmodium falciparum, 3D7
row,Structure (SMILES),XC50 [nM]
1,Nc1c2ccccc2nc2ccc(Cl)cc12,805
2,Cc1nc(N)nc(N)c1-c1ccc2ccccc2c1,868
3,CC(=O)Nc1ncc(C(=O)Nc2cccc(-c3ccc(-c4nc5cc(C(F)(F)F)ccc5[nH]4)s3)c2)s1,398
4,O=C1COc2cc(Cl)c(CNC3CCN(CCc4ccnc5c(F)cc(F)cc45)CC3)nc2N1,797
5,COc1ccc(CNCc2cccc(-c3cccc(-c4nc5cccc(C)c5[nH]4)c3)c2)cc1,134
6,Nc1nc(N)c2c(ccc3c2ccn3Cc2ccc(Cl)cc2)n1,3.2
7,CC(C)(C)c1ccc(NC(=O)c2ccc(CN3CCCN(Cc4cccc(O)c4)CC3)cc2)cc1,665
8,CN1CCC(Oc2ccc(CN3CC[C@H](NC(=O)c4ccc(F)c(F)c4)C3)c3ccccc23)C1 (stereo partly drawn),1080
9,Oc1ccc(CCCNc2nc(NCc3cccc4ccccc34)nc(NC3CCNCC3)n2)cc1,1130
10,Cc1cc(N)cc2nc(-c3ccc(N)cc3)[nH]c12,892
11,COc1ccccc1CCNc1nc(C)cc(NCCC(=O)Nc2ccccc2)n1,806
12,CCCCCCCc1c(C)nc2cc(OC)ccc2c1O,62.8
13,O=C(NCc1ccccc1)c1ccc(C(=O)NCC2CNCCO2)cc1 (stereo not drawn),1140
14,COc1ccc(CN(C)CCCOc2ccc(NC(=O)C=Cc3ccc(C(C)(C)C)cc3)cc2)cc1OC,855
15,CC(C)CN(C)c1ncnc2c1nc(-c1cncc(C#N)c1)n2CCNCc1ccccc1,1360
16,Cc1c(C(=O)N[C@@H](C)c2ccccc2)c2cc(O)c(Br)cc2n1C1CCCCC1,840
17,COc1ccc(-c2cccc(NC(=O)c3ccc(Cl)cc3)c2)cc1CNC(C)C,695
18,Cc1cc(NC(=O)Nc2ccc(C(C)C)cc2)c2ccccc2n1,662
19,Cc1ccc(O)cc1Nc1ccnc2cc(-c3ccccc3)ccc12,1070
20,CN(Cc1cccc(C#N)c1)C1CCN(c2cc(NC(=O)c3cccc(F)c3)ccn2)CC1,926
21,Cc1ccc(C)c(CC(=O)N2CCC(n3c(C)nc4ccc(F)cc43)CC2)c1,193
22,Cc1csc(-c2ncc(OC[C@@H](N)Cc3ccccc3)cc2-c2ccc3[nH]nc(C)c3c2)c1,836
23,CN(/N=C/c1ccc(Cl)cc1)c1nc(NCCc2ccc(O)cc2)nc(N2CCNCC2)n1,1350
24,O=C(/C=C/c1ccc(Cl)c(Cl)c1)NCCCCCN1CCCN(C(=O)Nc2cc(Cl)cc(Cl)c2)CC1,791
25,COc1cccc(C=CC(=O)N(CCN)Cc2ccccc2)c1,815

row,Structure (SMILES),XC50 [nM]
1,COc1ccc(N2CCN(CCCOc3ccc(NC(=O)c4cc(Cl)cc(Cl)c4)cc3)CC2)c(OC)c1,897
2,O=C(NCCc1ccc(Cl)c(Cl)c1)c1ccc(CNC(=O)c2ccc(O)c(-c3ccc(Cl)c(Cl)c3)c2)cc1,812
3,O=C(NCCNc1ccnc2cc(Cl)ccc12)c1ccccc1F,655
4,NC(=O)c1cc2nc(NC3CCC3)nc(Nc3cccc4[nH]ncc34)c2[nH]1,732
5,O=[N+]([O-])c1ccc(N/C(=N\c2ccccc2Br)NCCOc2ccccc2)c(O)c1,1050
6,CCNc1cc(C(=O)N[C@@H](Cc2ccccc2)[C@H](O)CNC2CCC(C)(C)C2)cc(N2CCCCS2(=O)=O)c1 (stereo partly drawn),138
7,COc1ccc(CNC(=O)NC2CCN(c3ccnc(Nc4ccc(OC)cc4)n3)C2)cc1 (stereo not drawn),1000
8,c1ccc(COc2ccc(Nc3ncnc4cnc(-c5ccc(CN6CCCCC6)o5)cc34)cc2)cc1,967
9,NC1CCN(Cc2ccc(-c3ccc(-c4nc5ccccc5[nH]4)s3)cc2)C1 (stereo not drawn),743
10,CCCCCCCC1CC(CC(=O)Nc2ccnc3ccc(OC)cc23)CN1C(=O)OC(C)(C)C (stereo not drawn),714
11,CCCc1nc2c(N3CCCN(C(=O)NC4CCCCC4)CC3)cccc2n1Cc1ccccn1,1160
12,O=C(/C=C/c1ccc(Cl)c(Cl)c1)NCCCCCN1CC[C@H](NC(=O)c2ccc3c(c2)OCO3)C1,942
13,CCC(=O)N1CCc2cc(Br)cc(S(=O)(=O)N3CC(C)CC(C)C3)c21 (stereo not drawn),932
14,FC(F)(F)c1ccc2[nH]c(-c3ccc(-c4ccc(CNCCc5ccncc5)cc4)cc3)nc2c1,129
15,CCC(CC)(Cc1ccccc1)NC(=O)[C@H](Cc1ccc(OC)c(OC)c1)Nc1ccc(C#N)c2ccccc12,866
16,Cc1ccc(CN2CCN(Cc3cccc(NC(=O)c4ccc5ccccc5c4)c3)CC2)cc1C,1220
17,Cc1ccc(Nc2nc(C)cc(NCc3ccc(-n4ccnc4)cc3)n2)cc1,1010
18,O=C(/C=C/c1ccc(Cl)c(Cl)c1)NCCCCCN1CCN(C(=O)Nc2cccc(F)c2)CC1,874
19,N#CCCN1CCN(Cc2cccc(-c3ccc(-c4nc5ccccc5[nH]4)cc3)c2)CC1,1020
20,O=C(NCCSCc1c(F)cccc1Cl)c1cnc2c(c1)nc(-c1c[nH]c(-c3ccccc3)n1)n2CCc1c[nH]cn1,807
21,O=C(Nc1cccc(-c2ccc(-c3nc4cc(F)ccc4[nH]3)cc2)c1)Nc1ccc(F)c(F)c1F,113
22,Cc1noc(C)c1-c1ccc2c(Nc3ccccc3C(C)(C)C)c(C(=O)NCc3ccccc3)cnc2c1,762
23,O=C(Nc1ccc2ccccc2c1)c1ccc(CN2CCC(Cc3ccccc3)CC2)cc1,876
24,CCOC(=O)NC1=NC(C)(C)N(OCc2ccc(Cl)c(Cl)c2)C(NC(=O)OCC)=N1,278
25,O=C(NC1CCN(Cc2ccccc2)C1)c1ccc(Nc2ccc(Br)cc2)nc1 (stereo not drawn),1080

row,Structure (SMILES),XC50 [nM]
1,O=C1c2ccccc2C(=O)N1CCOc1c(Br)cc(Br)cc1CNCCCNc1cc(=O)c2ccccc2[nH]1,837
2,COC(=O)/C=C/C(=O)N[C@@H]1CC[C@@]2(O)[C@H]3Cc4ccc(O)c5c4[C@@]2(CCN3CC2CC2)[C@H]1O5,639
3,CNc1ccc(CNCc2ccc(-c3ccc(-c4nc5cc(C(F)(F)F)ccc5[nH]4)cc3)cc2)cc1,167
4,COc1ccc(S(=O)(=O)N2CCC3(CC2)OCC(=O)NC3c2ccc(Cl)c(Cl)c2)cc1 (stereo not drawn),644
5,CCCn1c(Sc2ccc(C#N)c([N+](=O)[O-])c2)nnc1-c1ccc(N(C)C)cc1,125
6,CNC(=O)c1ccccc1Nc1nc(Nc2cccc(CS(C)(=O)=O)c2)ncc1C,533
7,COc1ccc(NC2=C(c3ccccc3)C(=O)c3ccccc32)cn1,705
8,COc1ccc(CNCC2CCC(CNCCc3ccccc3)CC2)cc1Cl (stereo not drawn),789
9,C=Cc1ccc(-c2c(C)[nH]c(C)c(Br)c2=O)cc1,556
10,CC(C)NCc1ccc(-c2cccc(NC(=O)c3ccc(Cl)cc3)c2)cc1,289
11,CC(C)CNCc1cccc(-c2cccc(CN(CCCN3CCN(C)CC3)C(=O)Nc3ccccc3)c2)c1,1150
12,N=C1N=C(N)NC2(CCCCC2)N1OCCCOc1cccc2ccccc12,3.2
13,COc1ccc(CCn2c(=N)c(C(=O)NC3CCCC3)cc3c(=O)n4ccccc4nc32)cc1,678
14,COc1cc2nc(N3CCC(CNC(=O)c4ccc(OC(F)(F)F)cc4)CC3)nc(N)c2cc1OC,224
15,CCc1ccc(-c2nc3cc(NC(=O)c4cc([N+](=O)[O-])cc([N+](=O)[O-])c4)ccc3o2)cc1,932
16,COc1ccc(CN2CCCC(Nc3ccc(F)c(F)c3)C2)c(O)c1 (stereo not drawn),1090
17,COc1ccc(Cl)c(CC2c3cc(O)c(Cl)cc3CCN2C)c1 (stereo not drawn),695
18,CN1CCN(CCCNCc2ccc(Nc3nccc(Nc4ccc(Oc5ccccc5)cc4)n3)cc2)CC1,635
19,C=CCn1cc(C2CCN(CCCCNC(=O)c3sc(-c4ccc(C(F)(F)F)cc4)nc3CO)CC2)c2cc(OC)ccc21,1040
20,CC(=O)Oc1c(Br)c(C)nc(C)c1-c1ccc(Oc2ccc(OC(F)(F)F)cc2)cc1,131
21,O=C(CCCc1ccccc1)Nc1cccc(N2CCC(N3CCN(c4ccccc4O)CC3)CC2)c1,786
22,Cc1cccc(C(=O)Nc2ccnc(N(C)CCCN(C)Cc3cccc(O)c3)c2)c1,967
23,O=C(c1ccc(-c2ccccn2)s1)N1CCc2cc3nccc(N4CCN5CCC[C@H]5C4)c3cc21,762
24,CC(CN1CCN(C)CC1)C(=O)Nc1ccc(-c2ccc(-c3nc4cc(C(F)(F)F)ccc4[nH]3)cc2)cc1 (stereo not drawn),415
25,Cc1ccc2ncc(Cl)c(CCN3CCC(NCc4ccc5c(n4)NC(=O)CS5)CC3)c2n1,1100

row,Structure (SMILES),XC50 [nM]
1,CN1CCN(c2ccnc3ccc(NC(=O)Nc4ccc(-c5ccccc5)cc4)cc23)CC1,776
2,COc1ccc(-c2nc(NC(=O)COc3ccc(C(C)=O)cc3)sc2C)cc1,713
3,CCOc1cc(C)ccc1C1CCN(CCCCNC(=O)c2ccc(NC(=O)c3cc(Cl)cc(Cl)c3)cc2)CC1,355
4,Oc1ccc(CCNc2nc(NCCCOc3ccccc3-c3ccc(C(F)(F)F)cc3)nc(N3CCNCC3)n2)cc1,891
5,Cc1cc(NC2CCN(CC3CCCCC3)CC2)nc(Nc2ccccc2Cl)n1,642
6,CN1CC=C(c2csc3ccc(NC(=O)Nc4ccc(-c5ccncc5)c(Cl)c4)cc23)CC1,681
7,CC(C)(CNC(=O)[C@@H]1CCCN(CCOc2ccc(F)c(F)c2)C1)c1nc(-c2ccc(Cl)c(O)c2)c(-c2ccncc2)[nH]1,722
8,Cc1cccc2nc(-c3cccc(-c4cccc(CNCCCN5CCCC5=O)c4)c3)[nH]c12,743
9,Cc1cc(N(C)C)nc(Nc2ccc(NS(=O)(=O)c3ccccc3)cc2)n1,1350
10,CCCC(C)c1cnc2nc(N)nc(N)c2c1C (stereo not drawn),28.4
11,COc1ccc2nccc([C@@H](O)CN3CCC(NS(=O)(=O)c4cc(Br)c(Br)s4)CC3)c2c1,851
12,COc1cc(F)c2nccc([C@@H](O)CN3CCC(NCc4ccc5c(n4)NC(=O)CS5)CC3)c2c1,560
13,CCN(CC)CCCC(C)Nc1ccnc2ccc(OC)cc12 (stereo not drawn),822
14,CCOC(=O)c1cccc(NC(=O)Nc2cc(C)nc3ccccc23)c1,286
15,CC1CN(c2cnn(Cc3cccc(NC(=O)Nc4ccc(F)cc4[N+](=O)[O-])c3)c(=O)c2Cl)CC(C)N1 (stereo not drawn),866
16,COc1ccc(-c2nonc2NC(=O)c2cccc(C)c2)cc1OC,806
17,CN1CCC(NCc2cccc(-c3ccc(S(=O)(=O)NCc4ccccc4)cc3)c2)CC1,687
18,CC(=O)c1cccc(NC(=O)NC2CCN(c3ccnc(Nc4ccc(F)cc4)n3)C2)c1 (stereo not drawn),650
19,O=C(Nc1cccc(CN2CCN(C(=O)c3cccc(F)c3)CC2)c1)c1cccs1,372
20,COCCNCc1cccc(-c2ccc3c(Nc4ccc(Oc5cccnc5)cc4)ccnc3c2)c1,178
21,CC(CN)OCn1cnc2c(N)ncnc21 (stereo not drawn),231
22,N#Cc1ccc(-c2ccc(C(=O)NCCCCN3CC=C(c4ccc5c(c4OCC4CC4)CCCC5)CC3)cc2)cc1,623
23,COc1ccc(OCC(O)CN(Cc2ccccc2OC)C(=O)Nc2ccc(Br)cc2)cc1 (stereo not drawn),748
